Marks after values point to notes of the source that are not given here.
Assays:
[1] = test system: bleomycin-induced pulmonary fibrosis; assay: Effects on bleomycin-induced pulmonary fibrosis (mouse model); format: in vivo
Experimental: (§1) A C57BL/6 mouse (male, body weight 19 to 21 g) was intraperitoneally anesthetized with pentobarbital, and an incision was made on the cervical organ. Ten mice were used as controls. The control mice (n=10) were endotracheally administered with bleomycin (product of Nippon Kayaku Co., Ltd.) (1.5 U/kg), lysed in physiological saline, twice a day for 14 days. On the other hand, the test mice were subjected to forcible oral administration with the compound b (200 mg/kg), suspended in a 0.5% carboxymethyl cellulose aqueous solution, twice a day for 14 days, in addition to the above endotracheal administration. Then, the lung tissues taken from these control mice and the test mice were analyzed, and further assayed for hydroxyproline levels. The hydroxyproline levels in the lung tissues were assayed in terms of the level in the hydrolysate of the lung tissues as described in the method of Kivirikko et al (Anal. Biochem. 19, 249-255 (1967)). Pulmonary fibrosis levels (severity) were scored from 0 to 8, based on the method of Ashcort et al (J. Clin. Pathol. 41, 467-470, (1988)). Further, the control mice and test mice were assayed for plasma PAI-1 activity (ng/ml). The results of lung tissue analysis were shown in FIG. 15 (a represents fibrosis score and b is a set of histological stain images).

plasma PAI-1 = target: T1, plasma PAI-1 (Mus musculus, UniProt P22777); assay: Plasma PAI-1 activity in mice with bleomycin-induced pulmonary fibrosis; format: in vivo
T1 construct: from tissue; host or cells: mouse plasma (C57BL/6, male)
T1 sequence (P22777 23-402): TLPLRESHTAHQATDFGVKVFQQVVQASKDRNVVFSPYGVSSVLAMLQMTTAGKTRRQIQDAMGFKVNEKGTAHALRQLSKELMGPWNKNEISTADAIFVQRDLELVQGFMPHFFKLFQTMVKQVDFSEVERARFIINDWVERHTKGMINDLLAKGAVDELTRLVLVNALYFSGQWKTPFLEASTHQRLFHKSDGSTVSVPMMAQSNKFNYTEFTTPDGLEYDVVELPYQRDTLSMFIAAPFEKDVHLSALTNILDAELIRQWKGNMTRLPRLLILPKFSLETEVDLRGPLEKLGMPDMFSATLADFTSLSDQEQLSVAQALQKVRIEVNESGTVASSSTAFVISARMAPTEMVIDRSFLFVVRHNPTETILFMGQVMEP
Experimental: as §1

PAI-1 [2] = target: T2, PAI-1 (Homo sapiens, UniProt P05121); assay: Fibrinolytic Action Assay (fibrin plate, PAI-1 + t-PA + test compound); format: biochemical; conditions: mixture of PAI-1, t-PA and test compound, 18 hours at room temperature
T2 construct: purchased Molecular Innovations Inc., USA (PAI-1); American Diagnostica, Inc., USA (t-PA)
Experimental: The compounds a and b were evaluated for fibrinolytic action in accordance with the method disclosed in the document (Matsuo, O. et al., Haemostasis 16, 43-50 (1986)).
More specifically, an aqueous solution (25 mM barbital sodium, 50 mM NaCl, and 25 mM CaCl2) containing a concentration of 1.5 mg/ml of fibrinogen (product of Organon Teknica) was added on a 9 cm-plate to thrombin (10NIH U/ml: product of Mochida Pharmaceutical Co., Ltd.) dissolved in a 0.2 ml physiological saline, and the mixture was allowed to stand for 2 hours at room temperature. Using this mixture, fibrinolysis assay was conducted.
Namely, a mixture of PAI-1, t-PA and a test compound were dropped onto the above-mentioned plate, and incubated for 18 hours at room temperature. Fibrinolysis due to the plasminogen activation was assayed in terms of the lysed area on the plate.

PAI-1 [3] = target: T2, PAI-1; assay: PAI-1 Inhibitory Activity Assay (Reference Test Example 1 (1)); format: biochemical; conditions: 35 μM and 50 μM; FIG. 14
Experimental: The compounds a and b (test compounds) were evaluated for inhibitory action on human PAI-1 (product of Molecular Innovations Inc., USA, hereinafter referred to the same). More specifically, human PAI-1 was added to a 0.1% Tween 80-containing 100 mM Tris-HCl (pH 8) solution each containing the above compound respectively in a given concentration (20, 35, 50 and 100 μM), and incubated at 37° C. for 15 minutes. Subsequently, added thereto was human tissue plasminogen activator (t-PA) (product of American Diagnostica, Inc., USA, hereinafter referred to the same), adjusted to […], and further incubated at 37° C. for 15 minutes. Then, 1.25 mM of S-2288 synthesized substrate (product of Chromogenix, Italy, hereinafter referred to as the same), a chromogenic substrate, was added thereto. The final mixed solution contained 100 mM Tris-HCl (pH 8), 30 mM NaCl, 1% DMSO, 0.1% Tween […], 9.8 nM t-PA, 1 mM S-2288 and the test compound a or b (20, 35, 50 or 100 μM).
Free radical p-nitroanilide removed from the chromogenic substrate (S-2288) by t-PA action was measured using a spectrophotometer at an absorbance of 405 nm, every 5 minutes, for 30 minutes. […]

[4] = C57BL/6 mice, bleomycin, 200 mg/kg p.o. twice/day for 14 days in 0.5% CMC, n=10, mean±SE
[5] = versus elevation by bleomycin, 200 mg/kg p.o. twice a day

T2 sequence (P05121 24-402): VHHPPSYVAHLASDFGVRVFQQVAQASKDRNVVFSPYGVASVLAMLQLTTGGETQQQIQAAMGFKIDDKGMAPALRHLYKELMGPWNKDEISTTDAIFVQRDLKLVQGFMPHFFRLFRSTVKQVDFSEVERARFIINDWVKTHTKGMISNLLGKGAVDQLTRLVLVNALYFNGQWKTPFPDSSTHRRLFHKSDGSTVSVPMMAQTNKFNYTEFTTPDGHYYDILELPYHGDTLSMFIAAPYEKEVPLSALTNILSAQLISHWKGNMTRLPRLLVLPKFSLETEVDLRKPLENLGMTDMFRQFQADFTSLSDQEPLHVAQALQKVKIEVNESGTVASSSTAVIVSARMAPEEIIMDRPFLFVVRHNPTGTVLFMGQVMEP

| Compound | Hydroxyproline Level in Lung Tissue [1, 4] | fibrosis score ([1]; scored from 0 to 8 (Ashcroft), bleomycin mice, 200 mg/kg p.o. twice a day for 14 days, FIG. 15) | hydroxyproline level in the lung tissues (in words) [1, 5] | Plasma PAI-1 Activity (plasma PAI-1; [4]) | plasma PAI-1 activity (in words) (plasma PAI-1; [5]) | fibrinolysis (lysed area on the plate) (PAI-1 [2]) | PAI-1 activity inhibitory action compared with tiplaxtinin (PAI-1 [3]) |
| --- | --- | --- | --- | --- | --- | --- | --- |
| CCC(CC(=O)Nc1scc(-c2cccs2)c1C(=O)O)C(=O)Nc1scc(-c2cccs2)c1C(=O)O (stereo not drawn) [compound b, 2-[3-(3′-carboxy-4′-thienylthiophen-2′-ylcarbamoyl)-pentanoylamino]-4-thienylthiophen-3-carboxylic acid] | 204.2 ± 9.5^b μg/lung | 2.9±0.42 | significantly decreases | 1.2 ± 0.1^b ng/ml | significantly decreases | inhibit the fibrinolysis suppression caused by PAI-1 | higher PAI-1 activity inhibitory action at concentrations of 35 μM and 50 μM than tiplaxtinin |
| CCC(CC(=O)Nc1scc(-c2ccccc2)c1C(=O)O)C(=O)Nc1scc(-c2ccccc2)c1C(=O)O (stereo not drawn) [compound a, 2-[3-(3′-Carboxy-4′-phenylthiophen-2′-ylcarbamoyl)-pentanoylamino]-4-phenylthiophen-3-carboxylic acid] | – | – | – | – | – | inhibit the fibrinolysis suppression caused by PAI-1 | higher PAI-1 activity inhibitory action at concentrations of 35 μM and 50 μM than tiplaxtinin |
